# Tests used:
# [1] = molecular target: Melanocortin receptor 3 (Homo sapiens, UniProt P41968); type: cell membranes, HEK293, Membrane; further: in other assays of this panel Not Active means under 50% inhibition at 10 µM
# [2] = molecular target: Platelet-activating factor receptor (Homo sapiens, UniProt P25105); type: tissue-based; further: in other assays of this panel Not Active means under 50% inhibition at 10 µM
# [3] = DRUGMATRIX: Calcium Channel Type L, Benzothiazepine radioligand binding (ligand: [3H] Diltiazem); type: cell membranes, Rattus norvegicus, Wistar, Brain, Membrane; settings: Not Active = under 50% inhibition at 10 µM
# [4] = molecular target: Cytochrome P450 2D6 (Homo sapiens, UniProt P10635); settings: bti-tn-5b1-4; further: in other assays of this panel Not Active means under 50% inhibition at 10 µM
# [5] = molecular target: T1, Neutrophil elastase (Homo sapiens, UniProt P08246); type: tissue-based;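 further: inhibition of neutrophil elastase enzyme activity, measured with a p-nitroanilide-linked peptide substrate; in other assays of this panel Not Active means under 50% inhibition at 10 µM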
# T1 sequence (P08246 whole entry): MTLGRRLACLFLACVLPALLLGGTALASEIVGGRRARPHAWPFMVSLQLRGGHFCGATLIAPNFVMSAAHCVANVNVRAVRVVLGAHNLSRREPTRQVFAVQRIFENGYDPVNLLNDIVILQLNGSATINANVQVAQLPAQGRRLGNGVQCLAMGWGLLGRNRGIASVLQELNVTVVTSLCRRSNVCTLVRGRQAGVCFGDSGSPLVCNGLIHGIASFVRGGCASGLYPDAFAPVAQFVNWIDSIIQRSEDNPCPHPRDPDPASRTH
# [6] = molecular target: T2, Alpha-2A adrenergic receptor (Homo sapiens, UniProt P08913); type: cell membranes, Sf9, Membrane; settings: for Ki: read-out: Ki
# T2 sequence (P08913 whole entry): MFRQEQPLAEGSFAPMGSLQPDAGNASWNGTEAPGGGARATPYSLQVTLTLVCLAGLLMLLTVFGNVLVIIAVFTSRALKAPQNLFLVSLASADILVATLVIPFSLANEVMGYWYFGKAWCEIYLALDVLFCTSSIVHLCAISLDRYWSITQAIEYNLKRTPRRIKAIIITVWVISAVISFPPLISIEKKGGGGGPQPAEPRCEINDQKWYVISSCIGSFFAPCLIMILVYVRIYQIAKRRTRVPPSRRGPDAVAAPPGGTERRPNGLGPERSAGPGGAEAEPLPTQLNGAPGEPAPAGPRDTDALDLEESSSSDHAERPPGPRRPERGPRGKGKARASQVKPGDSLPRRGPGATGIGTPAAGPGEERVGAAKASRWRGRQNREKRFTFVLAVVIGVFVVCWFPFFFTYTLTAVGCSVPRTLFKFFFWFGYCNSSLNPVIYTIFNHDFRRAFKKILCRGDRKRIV
# [7] = molecular target: T3, Cytochrome P450 1A2 (Homo sapiens, UniProt P05177); settings: bti-tn-5b1-4; further: in other assays of this panel Not Active means under 50% inhibition at 10 µM
# T3 sequence (P05177 whole entry): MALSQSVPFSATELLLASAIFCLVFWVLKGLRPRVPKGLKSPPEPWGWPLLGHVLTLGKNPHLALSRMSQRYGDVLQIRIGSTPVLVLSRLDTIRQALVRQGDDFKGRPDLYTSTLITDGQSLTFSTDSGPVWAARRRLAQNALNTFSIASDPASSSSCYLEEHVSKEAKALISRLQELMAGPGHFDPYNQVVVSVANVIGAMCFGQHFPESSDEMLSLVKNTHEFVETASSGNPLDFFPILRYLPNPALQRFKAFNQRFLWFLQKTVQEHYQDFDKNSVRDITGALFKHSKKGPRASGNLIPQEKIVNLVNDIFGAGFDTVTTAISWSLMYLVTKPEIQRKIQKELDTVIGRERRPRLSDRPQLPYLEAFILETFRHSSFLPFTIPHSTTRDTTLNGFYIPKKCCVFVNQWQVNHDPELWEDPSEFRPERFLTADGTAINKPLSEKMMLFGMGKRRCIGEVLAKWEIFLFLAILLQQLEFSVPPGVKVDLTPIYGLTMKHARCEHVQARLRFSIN
# Chain of Cytochrome P450 2D6 (P10635 whole entry): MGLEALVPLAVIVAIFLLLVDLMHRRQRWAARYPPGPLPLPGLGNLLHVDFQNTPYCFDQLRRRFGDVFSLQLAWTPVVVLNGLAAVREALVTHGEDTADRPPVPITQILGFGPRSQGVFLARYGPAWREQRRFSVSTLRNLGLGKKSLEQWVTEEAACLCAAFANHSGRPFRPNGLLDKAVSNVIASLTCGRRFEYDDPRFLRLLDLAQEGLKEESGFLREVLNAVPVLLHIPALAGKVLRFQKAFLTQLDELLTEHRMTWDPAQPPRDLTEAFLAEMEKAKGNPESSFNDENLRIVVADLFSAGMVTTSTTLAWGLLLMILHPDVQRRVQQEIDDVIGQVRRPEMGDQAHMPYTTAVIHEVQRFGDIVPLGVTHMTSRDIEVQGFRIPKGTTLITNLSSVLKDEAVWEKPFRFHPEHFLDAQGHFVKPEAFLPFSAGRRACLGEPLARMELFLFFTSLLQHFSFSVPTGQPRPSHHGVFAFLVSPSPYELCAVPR
# Chain of Melanocortin receptor 3 (P41968 whole entry): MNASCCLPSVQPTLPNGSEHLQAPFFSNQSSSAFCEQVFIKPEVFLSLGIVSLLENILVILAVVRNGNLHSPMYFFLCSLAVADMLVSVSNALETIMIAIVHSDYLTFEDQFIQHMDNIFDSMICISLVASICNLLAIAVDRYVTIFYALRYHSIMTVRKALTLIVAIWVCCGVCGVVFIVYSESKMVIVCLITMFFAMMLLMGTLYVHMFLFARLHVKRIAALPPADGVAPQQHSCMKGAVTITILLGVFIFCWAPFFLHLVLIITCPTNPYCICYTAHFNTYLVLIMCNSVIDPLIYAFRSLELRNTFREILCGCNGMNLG
# Chain of Platelet-activating factor receptor (P25105 whole entry): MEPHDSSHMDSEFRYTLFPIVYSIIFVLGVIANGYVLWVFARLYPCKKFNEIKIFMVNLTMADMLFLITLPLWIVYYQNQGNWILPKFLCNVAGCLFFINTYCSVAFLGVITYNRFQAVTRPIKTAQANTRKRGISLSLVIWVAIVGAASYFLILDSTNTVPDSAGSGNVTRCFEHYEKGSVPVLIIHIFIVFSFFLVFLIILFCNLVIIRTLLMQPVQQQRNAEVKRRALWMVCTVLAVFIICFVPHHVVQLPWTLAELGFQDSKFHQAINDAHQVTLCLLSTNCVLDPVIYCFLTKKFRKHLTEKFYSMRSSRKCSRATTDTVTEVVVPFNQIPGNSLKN
Structure (SMILES),IC50 ([1]; hek293),IC50 [2],IC50 [3],Ki [3],IC50 [4],Ki [4],IC50 [5],IC50 ([6]; sf9),IC50 [7],Ki [7],IC50 ([6]; read-out: IC50) [µM],Ki [6] [µM],IC50 ([1]; read-out: IC50) [µM],Ki ([1]; read-out: Ki) [µM]
COc1nc(C)nc(Cl)c1NC1=NCCN1 [MOXONIDINE],Not Active,Not Active,Not Active,Not Active,Not Active,Not Active,Not Active,Not Active,Not Active,Not Active,–,–,–,–
N[C@@H](Cc1ccc(O)c(O)c1)C(=O)O [LEVODOPA],Not Active,Not Active,Not Active,Not Active,Not Active,Not Active,Not Active,Not Active,Not Active,Not Active,–,–,–,–
OCCN(CCO)c1nc(N2CCCCC2)c2nc(N(CCO)CCO)nc(N3CCCCC3)c2n1 [DIPYRIDAMOLE],Not Active,Not Active,Not Active,Not Active,Not Active,Not Active,Not Active,Not Active,–,–,–,–,–,–
Cn1ccnc1S [METHIMAZOLE],Not Active,Not Active,Not Active,Not Active,Not Active,Not Active,Not Active,Not Active,–,–,–,–,–,–
CC(=O)[C@@]1(O)CC[C@H]2[C@@H]3C[C@H](C)C4=CC(=O)CC[C@]4(C)[C@H]3CC[C@@]21C,Not Active,Not Active,Not Active,Not Active,Not Active,Not Active,Not Active,Not Active,Not Active,Not Active,–,–,–,–
C=CCC1(C(C)CCC)C(=O)NC(=O)NC1=O (stereo unspecified) [SECOBARBITAL],Not Active,Not Active,Not Active,Not Active,Not Active,Not Active,Not Active,Not Active,Not Active,Not Active,–,–,–,–
C[C@@H]1CN(c2c(F)c(N)c3c(=O)c(C(=O)O)cn(C4CC4)c3c2F)C[C@H](C)N1 [SPARFLOXACIN],Not Active,Not Active,Not Active,Not Active,Not Active,Not Active,Not Active,Not Active,Not Active,Not Active,–,–,–,–
O=c1ncn2nc(Sc3ccc(F)cc3F)ccc2c1-c1c(Cl)cccc1Cl [NEFLAMAPIMOD],Not Active,Not Active,Not Active,Not Active,Not Active,Not Active,Not Active,–,Not Active,Not Active,34.2,12.8,–,–
Nc1c2c(nc3ccccc13)CCCC2 [TACRINE],Not Active,Not Active,Not Active,Not Active,–,–,Not Active,Not Active,Not Active,Not Active,–,–,–,–
CO[C@H]1/C=C/O[C@@]2(C)Oc3c(C)c(O)c4c(O)c(c(/C=N/N5CCN(C)CC5)c(O)c4c3C2=O)NC(=O)/C(C)=C\C=C\[C@H](C)[C@H](O)[C@@H](C)[C@@H](O)[C@@H](C)[C@H](OC(C)=O)[C@@H]1C [RIFAMPIN],Not Active,Not Active,Not Active,Not Active,Not Active,Not Active,Not Active,Not Active,Not Active,Not Active,–,–,–,–
CCCCc1oc2ccccc2c1C(=O)c1cc(I)c(OCCN(CC)CC)c(I)c1 [AMIODARONE],–,Not Active,–,–,–,–,Not Active,–,–,–,–,–,–,–
CCOC(=O)N1CCC(=C2c3ccc(Cl)cc3CCc3cccnc32)CC1 [LORATADINE],Not Active,Not Active,Not Active,Not Active,–,–,Not Active,Not Active,–,–,–,–,–,–
N[C@@H](Cc1ccc(N(CCCl)CCCl)cc1)C(=O)O,Not Active,Not Active,Not Active,Not Active,Not Active,Not Active,Not Active,Not Active,Not Active,Not Active,–,–,–,–
Cc1noc(NS(=O)(=O)c2ccc(N)cc2)c1C [SULFISOXAZOLE],Not Active,Not Active,Not Active,Not Active,Not Active,Not Active,Not Active,Not Active,Not Active,Not Active,–,–,–,–
N[C@@H](Cc1cc(I)c(Oc2ccc(O)c(I)c2)c(I)c1)C(=O)O [LIOTHYRONINE],Not Active,Not Active,–,–,Not Active,Not Active,Not Active,Not Active,–,–,–,–,–,–
c1ccc([C@H]2CN3CCSC3=N2)cc1 [LEVAMISOLE],Not Active,Not Active,Not Active,Not Active,Not Active,Not Active,Not Active,Not Active,Not Active,Not Active,–,–,–,–
CC1(C)O[C@@H]2C[C@H]3[C@@H]4CCC5=CC(=O)C=C[C@]5(C)[C@@]4(F)[C@@H](O)C[C@]3(C)[C@]2(C(=O)CO)O1 [TRIAMCINOLONE ACETONIDE],Not Active,Not Active,Not Active,Not Active,Not Active,Not Active,Not Active,Not Active,Not Active,Not Active,–,–,–,–
N#CC(C#N)=Cc1ccc(O)c(O)c1 [TYRPHOSTIN 23],Not Active,Not Active,Not Active,Not Active,Not Active,Not Active,Not Active,Not Active,Not Active,Not Active,–,–,–,–
Nc1nc2nc[nH]c2c(=S)[nH]1 [THIOGUANINE],Not Active,Not Active,Not Active,Not Active,Not Active,Not Active,Not Active,Not Active,Not Active,Not Active,–,–,–,–
CN1CCN(CCCN2c3ccccc3Sc3ccc(Cl)cc32)CC1 [PROCHLORPERAZINE],Not Active,Not Active,–,–,–,–,Not Active,–,–,–,–,–,–,–
CC/C(=C(\c1ccccc1)c1ccc(OCCN(C)C)cc1)c1ccccc1 [TAMOXIFEN],–,Not Active,–,–,–,–,Not Active,–,Not Active,Not Active,1.93,0.726,19.9,17.3
CC[C@@H](CO)NC(=O)[C@@H]1C=C2c3cccc4[nH]cc(c34)C[C@H]2N(C)C1 [METHYLERGONOVINE],Not Active,Not Active,Not Active,Not Active,–,–,Not Active,–,Not Active,Not Active,1.59,0.596,–,–
Cc1oncc1C(=O)Nc1ccc(C(F)(F)F)cc1 [LEFLUNOMIDE],Not Active,Not Active,Not Active,Not Active,Not Active,Not Active,Not Active,Not Active,–,–,–,–,–,–
Nc1nc2ccc(OC(F)(F)F)cc2s1 [RILUZOLE],Not Active,Not Active,Not Active,Not Active,–,–,Not Active,Not Active,–,–,–,–,–,–
Cc1nc2n(c(=O)c1CCN1CCC(c3noc4cc(F)ccc34)CC1)CCCC2 [RISPERIDONE],Not Active,Not Active,–,–,–,–,Not Active,–,Not Active,Not Active,–,–,–,–
CSc1ccc(/C=C2/C(C)=C(CC(=O)O)c3cc(F)ccc32)cc1 [SULINDAC SULFIDE],Not Active,Not Active,Not Active,Not Active,Not Active,Not Active,Not Active,Not Active,–,–,–,–,–,–

# Reference: ChEMBL document CHEMBL1909046, “DrugMatrix in vitro pharmacology data”
